Reference: publication PMC7139904, “Structural Requirements of Benzofuran Derivatives Dehydro-δ- and Dehydro-ε-Viniferin for Antimicrobial Activity Against the Foodborne Pathogen Listeria monocytogenes” (International Journal of Molecular Sciences, 2020)
In brackets after ≈: the same amount, converted by molar mass. Entries after “also recorded” stand apart in the source; their conditions may differ. Read-outs that look alike come from different tables or passages of the source. Marks after values point to notes of the source that are not given here.

Legend:
[1] = system: L. monocytogenes Scott A; test: Minimal inhibitory concentration (MIC) and minimal bactericidal concentration (MBC), 96-well plate broth assay; type: cell-based, Listeria monocytogenes; details: for MBC: value in brackets
Procedure: All synthesized derivatives were stored in dry form at -20 °C and dissolved in DMSO at a final concentration of 4.096 mg/mL prior to their use in the MIC and MBC determination. Briefly, L. monocytogenes was cultivated in Brain […] Infusion (BHI) broth (Sigma, Italy) at 37 °C for 24 h under a shaking condition (200 rpm). After the growth, the cells were diluted in BHI to 0.2 OD 600 nm and then used for the 96-well plate inoculum. The concentrations tested ranged from 1 up to 512 μg/mL. The assay was carried out in triplicate in a 96-well plate, according to Mattio et al., 2019 [4].

[2] = Cytotoxicity, growth inhibition assay (MTS) on normal skin fibroblasts; type: cell-based, human; details: human, WS1 normal skin fibroblast cells; WS1 IC50 (µM) compared with MIC (µM) on L. monocytogenes Scott A; read-out: Selectivity: concentration with cytotoxic effects on WS1 relative to MIC against L. monocytogenes
Procedure: (§1) The normal human skin WS1 fibroblast cells (ATCC CRL-1502) were cultured in Eagle’s Minimum Essential Medium plus 10% fetal bovine serum at 37 °C and 5% CO2. Cytotoxic potency was assessed by a growth inhibition assay (CellTiter 96® AQueous One Solution Cell Proliferation Assay MTS, Promega). The cells were seeded in a 96-well plate, and 24 h later were exposed to the compounds (concentration range 1−200 μM). After 48 h of exposure, 20 μL of 3-(4,5-dimethylthiazol-2-yl)-5-(3-carboxymethoxyphenyl)-2-(4-sulfophenyl)-2H-tetrazolium salt was added to each well. The absorbance was measured using a FLUOstar OPTIMA plate reader (BMG Labtech GmbH, Offenburg, Germany) at 492 nm after 4 h of incubation at 37 °C in 5% CO2. The IC50 was defined as the drug concentration causing 50% cell growth inhibition, determined by the dose−response curves. Experiments were performed in triplicate.

[3] = system: WS1 fibroblast cells; test: as above; type: cell-based, human; details: for IC50: WS1 cells, 48 h exposure, MTS assay, mean ± SD of three independent experiments; for Selectivity: concentration with cytotoxic effects on WS1 relative to MIC against L. monocytogenes: WS1 IC50 (µM) compared with MIC (µM) on L. monocytogenes Scott A
Procedure: as §1

[4] = system: L. monocytogenes LMG 16,779; set-up: method as in PMID 26867522; details: cited from earlier work
[5] = Listeria monocytogenes, BHI broth, tested 1 up to 512 µg/mL, triplicate, read-out: MIC
[6] = Listeria monocytogenes, MIC as µM concentration, read-out: MIC
[7] = Listeria monocytogenes, tested 1 up to 512 µg/mL, triplicate, read-out: MBC
[8] = Listeria monocytogenes, 24 h, BHI broth, tested 1 up to 512 µg/mL, triplicate, read-out: MIC
[9] = BHI broth, tested 1 up to 512 µg/mL, triplicate
[10] = MIC as µM concentration, read-out: MIC
[11] = tested 1 up to 512 µg/mL, triplicate

Row | SMILES | MIC [1, 5] [µg/mL] | MIC [1, 6] [µM] | MBC [1, 7] [µg/mL] | selectivity ratio at 48 h [2] | IC50 ([3]; Homo sapiens, WS1, 48 h) [µM] | MIC [1, 8] [µg/mL] | Selectivity: concentration with cytotoxic effects on WS1 relative to MIC against L. monocytogenes [3] | Antimicrobial activity, result in words [1] | MIC [1, 9] [µg/mL] | MIC [1, 10] [µM] | MBC [1, 11] | IC50 [3] [µM] | MIC ([4]; MIC as µM concentration) [µM] | MIC [4]
1 | [H]/N=C(\N/C(=N/[H])NCCCCCCNC(=N)NC(=N)Nc1ccc(Cl)cc1)Nc1ccc(Cl)cc1 [Chlorhexidine, reference compound] | 8 | 15.8 | 32 (≈ 63.3 µM) | – | – | – | – | – | – | – | – | – | – | –
2 | Oc1ccc(-c2oc3ccc(/C=C/c4cc(O)cc(O)c4)cc3c2-c2cc(O)cc(O)c2)cc1 [Compound 1, dehydro-δ-viniferin] | 2 | 4.42 | 16 (≈ 35.4 µM) | ~10 | 37 ± 1.4 | 2 | – | – | – | – | – | – | – | –
3 | Oc1ccc(/C=C/c2cc(O)cc3oc(-c4ccc(O)cc4)c(-c4cc(O)cc(O)c4)c23)cc1 [Compound 2, viniferifuran] | 16 | 35.4 | > 512 | – | 33 ± 1.4 | 16 | – | – | – | – | – | – | – | –
4 | Oc1ccc(-c2oc3ccccc3c2-c2cc(O)cc(O)c2)cc1 [Compound 3] | 16 | 50.3 | 64 (≈ 201 µM) | – | 98.7 ± 1.8 | 16 | two-fold higher; also recorded: at least two-times higher | – | – | – | – | – | – | –
5 | Oc1ccc(-c2cc3cc(/C=C/c4cc(O)cc(O)c4)ccc3o2)cc1 [Compound 4] | 256 | 743 | > 512 | – | 97.8 ± 3 | 256 | – | completely inactive | – | – | – | – | – | –
6 | Oc1cc(O)cc(/C=C/c2ccc3occ(-c4cc(O)cc(O)c4)c3c2)c1 [Compound 5] | 16 | 44.4 | 64 (≈ 178 µM) | – | 96.8 ± 4.5 | – | two-fold higher; also recorded: at least two-times higher | – | – | – | – | – | – | –
7 | Oc1ccc(-c2oc3cc(O)ccc3c2-c2cc(O)cc(O)c2)cc1 [Compound 6] | 64 | 191 | > 512 | – | 98.5 ± 2 | 64 | – | – | – | – | – | – | – | –
8 | Oc1ccc(/C=C/c2cc(O)cc3occ(-c4cc(O)cc(O)c4)c23)cc1 [Compound 7] | – | – | – | – | 45 ± 1.2 | – | two-fold higher; also recorded: at least two-times higher | – | 8 | 23.2 | 64 µg/mL (≈ 178 µM) | – | – | –
9 | Oc1ccc(/C=C/c2cc(O)cc3occ(-c4cc(O)cc(O)c4)c23)cc1 [Compound 8] | – | – | – | – | – | – | – | – | 64 | 178 | > 512 µg/mL | 85 ± 4.6 | – | –
10 | COc1cc(/C=C/c2ccc3oc(-c4ccc(O)cc4)cc3c2)cc(OC)c1 [Compound 9] | > 512 | 1370 | > 512 | – | 95 ± 2.3 | > 512 | – | inactive | – | – | >512 (>512) µg/mL | – | – | –
11 | COc1ccc(-c2cc3cc(/C=C/c4cc(OC)cc(OC)c4)ccc3o2)cc1 [Compound 10] | > 256 | 662 | > 256 | – | > 100 | – | – | inactive | – | – | – | – | – | –
12 | COc1ccc(-c2oc3cc(OC)ccc3c2-c2cc(OC)cc(OC)c2)cc1 [Compound 11] | > 256 | 656 | > 256 | – | > 100 | – | – | inactive | – | – | – | – | – | –
13 | COc1cc(/C=C/c2ccc(O)cc2)cc(OC)c1 [pterostilbene, reference compound] | 64 | 250 | 128 (≈ 499 µM) | – | 57 ± 10 | 64 | – | – | – | – | – | – | – | –
14 | Oc1ccc(/C=C/c2cc(O)cc(O)c2)cc1 [resveratrol] | – | – | – | – | > 200 | – | – | – | – | – | – | – | 876 (≈ 200 µg/mL) | 200 (-) ^c µg/mL
